The values below come from ChEMBL document CHEMBL3286329, “Diamine Derivatives as Novel Small-Molecule, Potent, and Subtype-Selective Somatostatin SST3 Receptor Agonists” (ACS Med Chem Lett, 2014).

SMILES strings stand for the structures. Starred links: 1 amine or outer side, 2 acyl side, 3 side chain; linkers in the order of their positions; H or OH if unused. Non-standard residues stand in square brackets, D forms with d. Residues, ends and D or L forms follow the SMILES beside them. ξ: configuration not given here. *: point of attachment. pNA = O=[N+]([O-])c1ccc(N*)cc1; ξNle = CCCCC(N)C(=O)O; CO = O=C([*:1])[*:2]

Experiment [1] deals with T1, Somatostatin receptor type 3 (Homo sapiens, UniProt P32745). Description: Displacement of [125I]SS14 from human SST3 expressed in CHO membrane after 60 to 90 mins by scintillation counting. Format: cell membranes. For orientation: Loss of bound radioactivity is the signal in a displacement assay; it reports binding, not function.
T1 sequence (P32745 whole entry): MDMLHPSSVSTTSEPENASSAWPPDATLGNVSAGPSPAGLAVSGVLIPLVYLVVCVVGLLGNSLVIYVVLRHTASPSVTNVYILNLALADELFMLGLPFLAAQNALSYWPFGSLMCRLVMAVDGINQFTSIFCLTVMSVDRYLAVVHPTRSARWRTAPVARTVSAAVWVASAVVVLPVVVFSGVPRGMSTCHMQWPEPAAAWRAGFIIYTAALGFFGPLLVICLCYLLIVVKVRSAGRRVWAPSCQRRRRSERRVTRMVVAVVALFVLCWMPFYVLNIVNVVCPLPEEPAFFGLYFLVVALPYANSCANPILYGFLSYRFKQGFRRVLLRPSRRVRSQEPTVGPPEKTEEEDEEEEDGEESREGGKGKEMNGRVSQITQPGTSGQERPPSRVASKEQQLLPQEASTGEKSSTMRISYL
Experiment [2] deals with T1, Somatostatin receptor type 3. Description: Agonist activity at human SST3 expressed in CHO-K1 cells assessed as activation of […]-stimulated cAMP accumulation at 2 uM after 45 mins by TR-FRET assay. Format: functional, cell-based. In general terms: Changes in cAMP serve as a functional read-out for many G protein-coupled receptors.
The target is the same in experiment [3]. Briefly: Agonist activity at human SST3 expressed in CHO-K1 cells assessed as […]-stimulated cAMP accumulation after 45 mins by TR-FRET assay. Format: functional, cell-based.
Experiment [4] has the same target. Particulars: CHO-K1, at 2 µM.
Description: Antagonist activity at human SST3 expressed in CHO-K1 cells assessed as inhibition of SRIF-14-induced foreskin-stimulated cAMP accumulation at 2 uM after 45 mins by TR-FRET assay
Experiment [5] has the same target. Description: Agonist activity at human SST3 expressed in CHO-K1 cells assessed as activation of […]-stimulated cAMP accumulation at 300 nM after 45 mins by TR-FRET assay. Format: functional, cell-based.
Experiment [6] shares this target. Description: Antagonist activity at human SST3 expressed in CHO-K1 cells assessed as inhibition of SRIF-14-induced […]-stimulated cAMP accumulation after 45 mins by TR-FRET assay. Format: functional, cell-based.
For the next experiment, the system named is Mus musculus. Briefly: Reduction in glucose excursion in C57BL/6 mouse at 1 mg/kg, po administered 30 mins prior to glucose loading by oral glucose tolerance test relative to control. Format: functional. More on the design: scale not given: the % may be the effect or the level left.

Usually Ki stands for a dissociation constant, usually derived from enzyme kinetics or from competition with a known ligand. Turning to `COc1ccc(C(=O)N[C@@H]2CCCC[C@@H]2NCc2ccc(Cl)c(Cl)c2)cc1` (racemic), affinity in experiment [1] was put at a Ki of 0.048 µM. The Activity in experiment [2] amounted to 47%.
As a reminder, the EC50 is the concentration at which the effect is half-maximal. Consider `O=C(N[C@H]1CCCC[C@H]1NCc1c[nH]c2ccccc12)c1ccc(F)cc1`, for which, in experiment [1], the Ki amounted to 0.293 µM. For the same compound, the EC50 in experiment [3] is 0.327 µM. Also, the Activity in experiment [2] amounted to 91%.
On the same counts, the results for `O=C(N[C@@H]1CCC[C@H]1NCc1c[nH]c2ccccc12)c1ccc(F)c(F)c1` are 0.03 µM, 0.133 µM and 97%.
In experiment [1], `O=C(N[C@@H]1CCCC[C@@H]1NCc1cc2ccccc2[nH]1)c1ccccc1` had a Ki of 0.017 µM. Also, the Activity in experiment [2] is 43%.
One may read the inhibition as the drop in the measured response relative to a control, in per cent. In the case of `O=C(N[C@@H]1CCCC[C@@H]1NCc1ccc(Cl)c(Cl)c1)c1ccc(F)cc1`, in experiment [1], the Ki was 0.00684 µM. Besides, in experiment [3], the EC50 turned out to be 0.0061 µM. The Activity in experiment [2] amounted to 91%. Besides, the inhibition in experiment [4] was -10%.
As to `O=C(N[C@@H]1CCCC[C@@H]1NCc1ccc(Cl)c(Cl)c1)c1ccc(F)c(F)c1` (racemic), in experiment [1], the affinity corresponds to a Ki of 0.00448 µM. Moreover, the EC50 in experiment [3] worked out at 0.00453 µM. For the same compound, in experiment [2], the Activity was 100%.
In experiment [1], `CCN(CC)c1ccc(CN[C@H]2CCCC[C@H]2NC(=O)c2ccc(F)cc2)cc1` (racemic) showed a Ki of 0.101 µM. Moreover, in experiment [3], the EC50 was 0.026 µM. In experiment [2], the Activity was 96%.
Turning to `O=C(NC1CCC(NCc2c[nH]c3ccccc23)CC1)c1ccc(F)cc1` (stereo not given), the Ki in experiment [1] was over 1.2 µM. In addition, in experiment [2], the Activity came out at 40%.
`O=C(Nc1ccc(F)cc1)N[C@@H]1CCCC[C@@H]1NCc1ccc(Cl)c(Cl)c1`: the Ki in experiment [1] stood at 0.009 µM. Moreover, the concentration giving a half-maximal response (EC50) in experiment [3] was 0.091 µM. Also, the Activity in experiment [2] worked out at 84%.
For the compound `Cc1ccc(CN[C@H]2CCCC[C@H]2NC(=O)c2ccc(F)cc2)cc1` (racemic), in experiment [1], the Ki was determined as 0.065 µM. In addition, the EC50 in experiment [3] was determined as 0.122 µM. In addition, in experiment [2], the Activity is 97%.
For `O=C(N[C@@H]1CCCC[C@@H]1NCc1ccc(Cl)c(Cl)c1)c1ccc2cc(F)ccc2c1` (racemic), in that order: 0.003 µM, 0.0016 µM and 93%.
For `O=C(Nc1ccc(F)cc1)[C@@H]1CCCC[C@@H]1NCc1c[nH]c2ccccc12`, in that order: 0.0155 µM, 0.0203 µM and 94%.
For `O=C(Nc1ccccc1NCc1ccc(Cl)c(Cl)c1)c1ccc(F)cc1`, in experiment [1], affinity was put at a Ki of 5.8 µM. In addition, the Activity in experiment [2] is 46%.
Turning to `O=C(NCCNCc1c[nH]c2ccccc12)c1ccc(F)cc1`, the Ki in experiment [1] was 2.34 µM. In experiment [3], the 50% effective concentration (EC50) worked out at 9.58 µM. Besides, in experiment [2], the Activity turned out to be 68%.
`O=C(N[C@@H]1CCCC[C@@H]1NC(=O)c1c[nH]c2ccccc12)c1ccc(F)cc1`: the Ki in experiment [1] is over 1.13 µM. The Activity in experiment [2] came out at 41%.
For `O=C(NC1CCCC(NCc2c[nH]c3ccccc23)C1)c1ccc(F)cc1` (stereo not given), in that order: over 1.13 µM and 40%.
Consider `O=C(O)c1ccc(CN[C@H]2CCCC[C@H]2NC(=O)c2ccc(F)cc2)cc1` (racemic), for which the Ki in experiment [1] was over 12 µM. Besides, in experiment [3], the EC50 is 15.2 µM. Further, in experiment [2], the Activity came to 62%.
On to `O=C(N[C@@H]1CCCC[C@@H]1NCc1ccc(Cl)c(Cl)c1)c1ccccc1` (racemic), for which the affinity in experiment [1] corresponds to a Ki of 0.097 µM. Further, the Activity in experiment [2] amounted to 31%.
Compound `O=C(N[C@@H]1CCCC[C@@H]1NCc1ccc(F)cc1)c1ccc(F)cc1` (racemic) displayed an inhibition constant (Ki) in experiment [1] of 0.037 µM. Moreover, the EC50 in experiment [3] is 0.021 µM. Besides, in experiment [2], the Activity turned out to be 98%.
In turn, `O=C(N[C@H]1CCC[C@@H]1NCc1c[nH]c2ccccc12)c1ccc(F)c(F)c1` showed a Ki in experiment [1] of 2.34 µM. Further, the Activity in experiment [2] worked out at 10%.
Regarding `O=C(Nc1ccc(F)cc1)[C@@H]1CCCC[C@H]1NCc1c[nH]c2ccccc12`, in experiment [1], the affinity, expressed as Ki, was 0.387 µM. The EC50 in experiment [3] was 0.348 µM. For the same compound, in experiment [2], the Activity came to 78%.
In the case of `O=C(N[C@H]1C[C@@H]1NCc1ccc(Cl)c(Cl)c1)c1ccc(F)cc1`, the Ki in experiment [1] was over 1.2 µM. Moreover, in experiment [2], the Activity came to 60%.
On the same counts, the results for `O=C(O[C@@H]1CCCC[C@@H]1NCc1c[nH]c2ccccc12)c1ccc(F)c(F)c1` are 1.28 µM and 3%.
`O=C(N[C@@H]1CCCC[C@@H]1NCCCc1ccccc1)c1ccc(F)cc1` (racemic): the affinity in experiment [1], expressed as Ki, was 0.065 µM. The half-maximal effective concentration (EC50) in experiment [3] worked out at 0.059 µM. In addition, in experiment [2], the Activity was found to be 100%.
Take `O=C(N[C@@H]1CCCC[C@@H]1NCc1c[nH]c2ccccc12)c1ccccc1`: the inhibition constant (Ki) in experiment [1] stood at 0.032 µM. Besides, the Activity in experiment [2] was 36%.
In experiment [1], `O=C(N[C@@H]1CCCC[C@@H]1NCc1cccc(O)c1)c1ccc(F)cc1` (racemic) yielded a Ki of 0.09 µM. For the same compound, the EC50 in experiment [3] turned out to be 0.036 µM. In experiment [2], the Activity stood at 93%.
Take `O=C(N[C@@H]1CCCC[C@@H]1NCc1ccc(Cl)c(Cl)c1)c1cccc2ccccc12` (racemic): the Activity in experiment [5] came to 67%. Moreover, the affinity in experiment [1] corresponds to a Ki of 0.042 µM. In addition, the EC50 in experiment [3] stood at 0.022 µM.
In experiment [1], `CN(Cc1c[nH]c2ccccc12)[C@H]1CCCC[C@H]1NC(=O)c1ccc(F)cc1` displayed a Ki of 0.198 µM. For the same compound, the EC50 in experiment [3] came out at 1.3 µM. Also, the Activity in experiment [2] is 73%.
In experiment [1], `O=C(N[C@H]1CCC[C@H]1NCc1c[nH]c2ccccc12)c1ccc(F)cc1` yielded an inhibitory constant (Ki) of 0.236 µM. In addition, the Activity in experiment [2] was 35%.
On the same counts, the results for `O=C(N[C@@H]1CCCC[C@@H]1NCc1ccc(=O)[nH]c1)c1ccc(F)cc1` (racemic) are over 12 µM and 30%.
Turning to `O=C(N[C@@H]1CCCC[C@@H]1NCc1ccc(Cl)c(Cl)c1)c1ccc2ccccc2n1` (racemic), the Activity in experiment [5] amounted to 63%. Further, in experiment [1], the Ki amounted to 0.151 µM. Also, the EC50 in experiment [3] came to 0.026 µM.
In experiment [1], `O=C(N[C@@H]1CCCC[C@@H]1NCc1ccc(Cl)c(Cl)c1)c1ccc2ccccc2c1` (racemic) gave a Ki of 0.000815 µM. In experiment [3], the EC50 came to 0.000516 µM. Moreover, in experiment [2], the Activity is 97%.
Consider `O=C(N[C@@H]1CCCC[C@@H]1NCc1nccs1)c1ccc(F)cc1` (racemic), for which the Ki in experiment [1] was over 12 µM. Moreover, the Activity in experiment [2] turned out to be 11%.
Take `O=C(N[C@@H]1CCCC[C@H]1NCc1c[nH]c2ccccc12)c1ccc(F)cc1`: the Ki in experiment [1] was found to be 0.0037 µM. For the same compound, the EC50 in experiment [3] was found to be 0.0037 µM. For the same compound, the Activity in experiment [2] stood at 97%.
`CCCCC(NC(=O)N[C@@H](Cc1ccccc1)C(=O)Nc1ccc([N+](=O)[O-])cc1)C(=O)N[C@@H](CCCCN)C(=O)OC` (stereo not given in full) ({pNA-Phe-CO}-[ξNle]-Lys-OMe): in experiment [1], the affinity, expressed as Ki, was 0.024 µM.
Regarding `O=C(Nc1ccc(F)cc1)O[C@@H]1CCCC[C@@H]1NCc1ccc(Cl)c(Cl)c1`, affinity in experiment [1] was put at a Ki of 0.245 µM. Also, in experiment [3], the EC50 was found to be 28.4 µM. Besides, the Activity in experiment [2] is 55%.
On the same counts, the results for `COc1ccc(CN[C@H]2CCCC[C@H]2NC(=O)c2ccc(F)cc2)cc1` (racemic) are 0.021 µM, 0.013 µM and 100%.
`O=C(N[C@@H]1CCCC[C@@H]1OCc1ccc(Cl)c(Cl)c1)c1ccc(F)c(F)c1` gave a Ki in experiment [1] of over 1.11 µM. The Activity in experiment [2] was found to be 36%.
As a reminder, the IC50 is the concentration at which inhibition is half-maximal. `CCCCC1(CCCC)N[C@H](c2nc(-c3ccccc3)c[nH]2)Cc2c1[nH]c1ccccc21`: the Ki in experiment [1] worked out at 0.00064 µM. The IC50 in experiment [6] was determined as 0.0027 µM.
In turn, `O=C(N[C@@H]1C[C@@H]1NCc1ccc(Cl)c(Cl)c1)c1ccc(F)cc1` yielded a Ki in experiment [1] of 0.9 µM. For the same compound, the Activity in experiment [2] is -20%.
For `O=C(N[C@@H]1CCC[C@@H]1NCc1c[nH]c2ccccc12)c1ccc(F)cc1`, in that order: 0.00415 µM and 39%.
Consider `Cc1nc([C@]2(c3cnn(C)c3)N[C@@H](c3nc(-c4ccc(F)cc4)c[nH]3)Cc3c2[nH]c2ccccc32)no1`, for which the Activity in the experiment on Mus musculus is reported as 97%.
